According to the supplement of paper PMC10331698:
± gives the standard deviation of the averaged measurements.

Key:
Assay in all cases: level (log10 ratio to DMSO vehicle control); higher = higher biomarker level / cell amount than vehicle control
[1] = compound: OCC(F)(F)C(F)(F)C(F)(F)C(F)(F)C(F)(F)C(F)(F)C(F)(F)C(F)(F)C(F)(F)C(F)(F)C(F)(F)F [11:1 Fluorotelomer alcohol]; conditions: in DMSO
Experimental: (§1)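 BioMAP Diversity Plus panel of 12 human primary cell co-culture systems (3C, 4H, LPS, SAg, BT, BF4T, BE3C, CASM3C, HDF3CGF, KF3CT, MyoF, Mphg). Compounds were added 1 h before stimulation and left for 24 h (MyoF 48 h; BT 72 h for soluble read-outs or 6 d for IgG). Biomarkers were read by ELISA, cytotoxicity by SRB, PBMC viability and proliferation by Alamar Blue. Each well value was divided by the mean of 8 DMSO control wells on the same plate and log10 transformed; duplicate blinded samples were tested at 4 concentrations.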

[2] = compound: OCC(F)(F)C(F)(F)C(F)(F)C(F)(F)C(F)(F)C(F)(F)F [6:1 Fluorotelomer alcohol]; conditions: in DMSO
Experimental: as §1

[3] = compound: O=C(CC(=O)C(F)(F)C(F)(F)C(F)(F)F)c1cccs1 [(Perfluorobutyryl)-2-thenoylmethane]; conditions: in DMSO
Experimental: as §1

[4] = compound: OCC(F)(F)C(F)(F)C(F)(F)C(F)(F)C(F)(F)C(F)(F)C(F)(F)C(F)(F)CO [1H,1H,10H,10H-Perfluorodecane-1,10-diol]; conditions: in DMSO
Experimental: as §1

[5] = compound: FC(F)(I)C(F)(F)C(F)(F)C(F)(F)C(F)(F)C(F)(F)I [1,6-Diiodoperfluorohexane]; conditions: 6700 nM; in DMSO
Experimental: as §1

Perfluoropinacol = compound: OC(C(F)(F)F)(C(F)(F)F)C(O)(C(F)(F)F)C(F)(F)F [Perfluoropinacol]; conditions: in DMSO
Experimental: as §1

[6] = compound: C=CC(=O)OCCC(F)(F)C(F)(F)C(F)(F)C(F)(F)C(F)(F)C(F)(F)C(F)(F)C(F)(F)F [8:2 Fluorotelomer acrylate]; conditions: in DMSO
Experimental: as §1

Row | Test System | level (log10) ([1]; 1100 nM) | level (log10) ([1]; 3300 nM) | level (log10) ([1]; 10000 nM) | level (log10) ([2]; 6700 nM) | level (log10) ([2]; 20000 nM) | level (log10) ([2]; 60000 nM) | level (log10) ([3]; 6700 nM) | level (log10) ([3]; 20000 nM) | level (log10) ([4]; 6700 nM) | level (log10) ([4]; 20000 nM) | level (log10) ([4]; 60000 nM) | level (log10) [5] | level (log10) (Perfluoropinacol; 6700 nM) | level (log10) (Perfluoropinacol; 20000 nM) | level (log10) ([6]; 6700 nM) | level (log10) ([6]; 20000 nM) | level (log10) ([6]; 60000 nM)
1 | SAg:CD62E/E-Selectin | 0.045 ± 0.0057 | 0.0325 ± 0.018 | 0.0355 ± 0.035 | 0.0085 ± 0.026 | -0.001 ± 0.0085 | 0 ± 0.025 | -0.164 ± 0.0092 | -0.113 ± 0.02 | -0.0215 ± 0.005 | -0.015 ± 0.0099 | -0.015 | 0 | 0.008 ± 0.0071 | -0.15 ± 0.0021 | -0.0125 ± 0.00071 | 0.0205 ± 0.03 | -0.009 ± 0.025
2 | BE3C:CD87/uPAR | -0.035 ± 0.0014 | -0.0795 ± 0.012 | -0.0385 ± 0.026 | 0.007 ± 0.017 | -0.0075 ± 0.0078 | 0.0105 ± 0.035 | 0.013 ± 0.0028 | -0.007 ± 0.0014 | -0.013 ± 0.011 | -0.042 ± 0.024 | -0.337 | 0.059 | -0.0675 ± 0.019 | -0.231 ± 0.016 | 0.03 ± 0.041 | 0.027 ± 0.035 | 0.0595 ± 0.049
3 | BF4T:CD90 | 0.0025 ± 0.011 | -0.0025 ± 0.011 | 0.002 ± 0.0042 | 0.0015 ± 0.0064 | -0.011 ± 0.0014 | 0.0035 ± 0.0092 | -0.014 ± 0.0085 | -0.062 ± 0.027 | -0.051 ± 0.0014 | -0.071 ± 0.0099 | -0.018 | -0.059 | -0.015 ± 0.017 | -0.024 ± 0.0071 | -0.0205 ± 0.018 | -0.019 ± 0.0099 | -0.0035 ± 0.021
4 | SAg:PBMC Cytotoxicity | -0.233 ± 0.016 | -0.266 ± 0.02 | -0.268 ± 0.076 | -0.014 ± 0.013 | -0.014 ± 0.0099 | -0.0295 ± 0.073 | -0.0295 ± 0.019 | -0.058 ± 0.03 | 0.009 | 0.0155 ± 0.036 | -0.155 | 0.026 | 0.046 ± 0.033 | 0.0855 ± 0.0021 | -0.01 ± 0.013 | -0.006 ± 0.027 | -0.0005 ± 0.05
5 | LPS:M-CSF | -0.009 ± 0.018 | -0.054 ± 0.047 | -0.0825 ± 0.066 | 0.009 ± 0.038 | 0.0085 ± 0.05 | 0.0125 ± 0.023 | 0.004 ± 0.085 | -0.046 ± 0.072 | -0.018 ± 0.024 | -0.013 | 0.011 | -0.008 | 0.0135 ± 0.015 | -0.1085 ± 0.00071 | 0.001 ± 0.0085 | -0.006 ± 0.023 | -0.03 ± 0.0014
6 | BE3C:HLA-DR | -0.0755 ± 0.037 | -0.141 ± 0.015 | -0.163 ± 0.0042 | 0.009 ± 0.025 | -0.0085 ± 0.026 | -0.077 ± 0.13 | -0.044 ± 0.0028 | -0.41 ± 0.032 | -0.0495 ± 0.019 | -0.174 ± 0.022 | -0.517 | -0.01 | -0.0145 ± 0.0064 | -0.0565 ± 0.019 | -0.0045 ± 0.011 | 0.009 ± 0.017 | 0.019 ± 0.034
7 | 4H:CCL26/Eotaxin-3 | 0.0025 ± 0.0035 | -0.0055 ± 0.0092 | -0.0085 ± 0.0078 | 0.01 ± 0.0085 | 0.012 ± 0.018 | -0.003 ± 0.025 | -0.041 ± 0.0057 | -0.241 ± 0.016 | -0.005 ± 0.037 | -0.0125 ± 0.035 | -0.179 | -0.037 | -0.03 ± 0.048 | -0.179 ± 0.037 | 0.0235 ± 0.0021 | -0.012 ± 0.018 | 0.01 ± 0.048
8 | 3C:CD87/uPAR | -0.024 ± 0.023 | -0.013 ± 0.024 | -0.003 ± 0.011 | -0.021 | -0.01 ± 0.042 | 0 ± 0.0085 | -0.148 ± 0.033 | -0.07 ± 0.03 | -0.063 ± 0.064 | -0.051 ± 0.075 | -0.165 | -0.022 | -0.159 ± 0.04 | -0.29 ± 0.022 | 0.007 ± 0.027 | -0.0065 ± 0.025 | -0.0025 ± 0.036
9 | LPS:CCL2/MCP-1 | -0.001 ± 0.0028 | -0.011 ± 0.011 | -0.009 ± 0.035 | -0.0015 ± 0.029 | -0.0045 ± 0.012 | 0.0045 ± 0.029 | -0.0475 ± 0.0035 | -0.131 ± 0.0057 | -0.0035 ± 0.00071 | -0.0135 ± 0.015 | 0.01 | 0.01 | 0.0205 ± 0.00071 | -0.103 ± 0.0078 | -0.0105 ± 0.0021 | -0.014 ± 0.0071 | 0.015 ± 0.041
10 | BE3C:CXCL8/IL-8 | -0.086 ± 0.011 | -0.158 ± 0.055 | -0.0975 ± 0.042 | 0.004 ± 0.017 | -0.0125 ± 0.042 | -0.0075 ± 0.0064 | -0.0905 ± 0.013 | -0.01 ± 0.023 | -0.078 ± 0.0099 | -0.098 ± 0.025 | -0.127 | 0.011 | -0.049 ± 0.0014 | -0.203 ± 0.021 | -0.019 ± 0.027 | -0.013 ± 0.033 | 0.043 ± 0.021
11 | LPS:sTNF-alpha | 0.0075 ± 0.012 | -0.0485 ± 0.013 | -0.105 ± 0.08 | -0.0625 ± 0.071 | -0.046 ± 0.09 | -0.0115 ± 0.0092 | 0.0225 ± 0.036 | 0.119 ± 0.029 | -0.0915 ± 0.069 | -0.043 ± 0.0085 | -0.023 | -0.007 | -0.0005 ± 0.025 | 0.008 ± 0.03 | -0.0245 ± 0.025 | -0.029 ± 0.027 | -0.0175 ± 0.012
12 | 4H:CD87/uPAR | -0.0285 ± 0.037 | -0.0415 ± 0.028 | 0 ± 0.059 | -0.0195 ± 0.018 | 0.029 ± 0.011 | -0.175 ± 0.36 | -0.006 ± 0.024 | 0.033 ± 0.0071 | -0.057 ± 0.0099 | -0.083 ± 0.0042 | -0.097 | -0.009 | -0.117 ± 0.022 | -0.226 ± 0.029 | -0.045 ± 0.051 | -0.03 ± 0.011 | -0.064 ± 0.069
13 | SAg:CD69 | -0.0355 ± 0.021 | -0.0425 ± 0.029 | -0.038 ± 0.023 | -0.0215 ± 0.011 | -0.0205 ± 0.0092 | -0.0045 ± 0.0064 | -0.128 ± 0.02 | -0.166 ± 0.0085 | -0.042 ± 0.044 | -0.0685 ± 0.066 | -0.119 | -0.026 | -0.039 ± 0.017 | -0.19 ± 0.033 | -0.01 ± 0.027 | -0.025 ± 0.016 | -0.0295 ± 0.032
14 | BF4T:CD106/VCAM-1 | 0.0045 ± 0.016 | -0.021 ± 0.025 | -0.016 ± 0.02 | 0.0075 ± 0.0021 | -0.007 ± 0.031 | -0.032 ± 0.0028 | 0.0215 ± 0.052 | -0.236 ± 0.063 | -0.012 ± 0.023 | -0.139 ± 0.037 | -0.145 | -0.041 | -0.0455 ± 0.0021 | -0.096 | -0.038 ± 0.0071 | -0.06 ± 0.024 | -0.0235 ± 0.076
15 | LPS:CD141/Thrombomodulin | -0.0285 ± 0.015 | -0.0185 ± 0.012 | -0.0035 ± 0.013 | -0.0225 ± 0.03 | -0.021 ± 0.051 | 0.002 ± 0.0057 | -0.009 ± 0.042 | -0.0665 ± 0.077 | -0.02 ± 0.03 | 0.007 ± 0.044 | -0.047 | 0.007 | -0.106 ± 0.028 | -0.118 ± 0.005 | -0.044 ± 0.04 | -0.085 ± 0.016 | -0.0925 ± 0.03
16 | BF4T:CCL2/MCP-1 | 0.018 ± 0.042 | 0.0235 ± 0.021 | 0.031 ± 0.023 | 0.0155 ± 0.015 | -0.014 ± 0.028 | 0.0285 ± 0.015 | -0.097 ± 0.018 | -0.306 ± 0.093 | -0.0755 ± 0.05 | -0.273 ± 0.049 | -0.329 | -0.172 | 0.0435 ± 0.032 | -0.0175 ± 0.015 | -0.007 ± 0.038 | -0.0265 ± 0.015 | -0.026 ± 0.041
